According to patent US6737383B1, “Herbicidal oxadiazolidines” (priority 1999, dated 2004):

How the values were obtained:
pigweed = assay: Test B pre/postemergence pigweed; type: in vivo, Amaranthus retroflexus
Procedure, shortened: (§1)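 Test chemicals in a non-phytotoxic solvent mixture with surfactant were sprayed preemergence onto planted seeds and postemergence onto plants 2 to 18 cm tall (1- to 4-leaf stage). After twelve to sixteen days in a greenhouse, injury was visually rated against untreated controls from 0 (no effect) to 10 (complete control).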

corn = assay: Test B pre/postemergence corn; type: in vivo, Zea mays
Procedure, shortened: as §1

cocklebur = assay: Test B pre/postemergence cocklebur; type: in vivo, Xanthium strumarium
Procedure, shortened: as §1

bamyardgrass = assay: Test B flood test barnyardgrass; type: in vivo, Echinochloa crus-galli
Procedure, shortened: (§2)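 Flood test on plants grown to the 2-leaf stage; treated plants kept in greenhouse twelve to sixteen days, then visually rated against controls on a 0 (no effect) to 10 (complete control) scale.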

velvetleaf = assay: Test B pre/postemergence velvetleaf; type: in vivo, Abutilon theophrasti
Procedure, shortened: as §1

blackgrass = assay: Test B pre/postemergence blackgrass; type: in vivo, Alopecurus myosuroides
Procedure, shortened: as §1

soybean = assay: Test B pre/postemergence soybean; type: in vivo, Glycine max
Procedure, shortened: as §1

sugar beet = assay: Test B pre/postemergence sugar beet; type: in vivo, Beta vulgaris
Procedure, shortened: as §1

surinam grass = assay: Test B pre/postemergence surinam grass; type: in vivo, Brachiaria decumbens
Procedure, shortened: as §1

rape = assay: Test B pre/postemergence rape; type: in vivo, Brassica napus
Procedure, shortened: as §1

morningglory = assay: Test B pre/postemergence morningglory; type: in vivo, Ipomoea hederacea
Procedure, shortened: as §1

wild oat = assay: Test B pre/postemergence wild oat; type: in vivo, Avena fatua
Procedure, shortened: as §1

smallflower flatsedge = assay: Test B flood test smallflower flatsedge; type: in vivo, Cyperus difformis
Procedure, shortened: as §2

purple nutsedge = assay: Test B pre/postemergence purple nutsedge; type: in vivo, Cyperus rotundus
Procedure, shortened: as §1

rice = assay: Test B flood test rice; type: in vivo, Oryza sativa
Procedure, shortened: as §2

bedstraw = assay: Test B pre/postemergence bedstraw; type: in vivo, Galium aparine
Procedure, shortened: as §1

[1] = Preemergence, Rate 62 g/ha, scale of 0 to 10 where 0 is no effect and 10 is complete control
[2] = Preemergence, Rate 125 g/ha, 0 is no effect, 10 is complete control
[3] = Preemergence, Rate 250 g/ha, scale 0 to 10, 0 is no effect, 10 is complete control
[4] = Preemergence, Rate 500 g/ha, scale 0 to 10 (0 no effect, 10 complete control)
[5] = Rate 62 g/ha, Postemergence, scale of 0 to 10 where 0 is no effect and 10 is complete control
[6] = Rate 125 g/ha, Postemergence, scale 0 to 10
[7] = Rate 500 g/ha, Postemergence, scale 0 to 10
[8] = Rate 62 g/ha, headed Pre-emergence (flood test species), scale 0 to 10 (0 no effect, 10 complete control)
[9] = Rate 125 g/ha, Pre-emergence, flood test species, scale 0 to 10 where 0 is no effect and 10 is complete control
[10] = Rate 250 g/ha, Pre-emergence, flood-test species, scale 0 to 10, 0 is no effect, 10 is complete control
[11] = Rate 500 g/ha, headed Pre-emergence (flood test species), scale 0 to 10 (0 no effect, 10 complete control)

COc1nc(OC)nc(N(C(=O)n2oc(=O)n(C(C)C)c2=O)C(C)C)n1 [Compound 182]
0: Redroot pigweed plant response rating (pigweed; [1]) | Redroot pigweed plant response rating (0 to 10 scale) (pigweed; [2]) | Redroot pigweed plant response rating (pigweed; [3]) | Redroot pigweed plant response rating (pigweed; [4]) | Redroot pigweed plant response rating (pigweed; [5]) | Redroot pigweed plant response rating (pigweed; [6]) | Plant response rating (0 to 10; 0 is no effect, 10 is complete control), Redroot pigweed (pigweed; Rate 250 g/ha, Postemergence) | Redroot pigweed plant response rating (pigweed; [7]) | Corn plant response rating (corn; [1]) | Corn plant response rating (0 to 10 scale) (corn; [2]) | Corn plant response rating (corn; [3]) | Corn plant response rating (corn; [4]) | Corn plant response rating (corn; [5]) | Corn plant response rating (corn; [6]) | Plant response rating (0 to 10; 0 is no effect, 10 is complete control), Corn (corn; Rate 250 g/ha, Postemergence) | Corn plant response rating (corn; [7]) | Cocklebur plant response rating (cocklebur; [1]) | Cocklebur plant response rating (0 to 10 scale) (cocklebur; [2]) | Cocklebur plant response rating (cocklebur; [3]) | Cocklebur plant response rating (cocklebur; [4]) | Cocklebur plant response rating (cocklebur; [5]) | Cocklebur plant response rating (cocklebur; [6]) | Plant response rating (0 to 10; 0 is no effect, 10 is complete control), Cocklebur (cocklebur; Rate 250 g/ha, Postemergence) | Cocklebur plant response rating (cocklebur; [7]) | Barnyardgrass plant response rating (bamyardgrass; [8]) | Barnyardgrass plant response rating (bamyardgrass; [9]) | Barnyardgrass plant response rating (bamyardgrass; [10]) | Plant response rating, Barnyardgrass (bamyardgrass; [11]) | Velvetleaf plant response rating (velvetleaf; [1]) | Velvetleaf plant response rating (velvetleaf; [3]) | Velvetleaf plant response rating (velvetleaf; [4]) | Velvetleaf plant response rating (velvetleaf; [6]) | Plant response rating (0 to 10; 0 is no effect, 10 is complete control), Velvetleaf (velvetleaf; Rate 250 g/ha, Postemergence) | Velvetleaf plant response rating (velvetleaf; [7]) | Blackgrass plant response rating (blackgrass; [1]) | Blackgrass plant response rating (0 to 10 scale) (blackgrass; [2]) | Blackgrass plant response rating (blackgrass; [3]) | Blackgrass plant response rating (blackgrass; [4]) | Blackgrass plant response rating (blackgrass; [5]) | Blackgrass plant response rating (blackgrass; [6]) | Plant response rating (0 to 10; 0 is no effect, 10 is complete control), Blackgrass (blackgrass; Rate 250 g/ha, Postemergence) | Blackgrass plant response rating (blackgrass; [7]) | Soybean plant response rating (soybean; [1]) | Soybean plant response rating (0 to 10 scale) (soybean; [2]) | Soybean plant response rating (soybean; [3]) | Soybean plant response rating (soybean; [4]) | Soybean plant response rating (soybean; [5]) | Soybean plant response rating (soybean; [6]) | Plant response rating (0 to 10; 0 is no effect, 10 is complete control), Soybean (soybean; Rate 250 g/ha, Postemergence) | Soybean plant response rating (soybean; [7]) | Sugarbeets plant response rating (sugar beet; [1]) | Sugarbeets plant response rating (0 to 10 scale) (sugar beet; [2]) | Sugarbeets plant response rating (sugar beet; [3]) | Sugarbeets plant response rating (sugar beet; [4]) | Sugarbeets plant response rating (sugar beet; [5]) | Sugarbeets plant response rating (sugar beet; [6]) | Plant response rating (0 to 10; 0 is no effect, 10 is complete control), Sugarbeets (sugar beet; Rate 250 g/ha, Postemergence) | Sugarbeets plant response rating (sugar beet; [7]) | B. signalgrass plant response rating (surinam grass; [1]) | B. signalgrass plant response rating (0 to 10 scale) (surinam grass; [2]) | B. signalgrass plant response rating (surinam grass; [3]) | B. signalgrass plant response rating (surinam grass; [4]) | B. signalgrass plant response rating (surinam grass; [5]) | B. signalgrass plant response rating (surinam grass; Rate 125 g/ha, Postemergence, scale 0 (no effect) to 10 (complete control)) | Plant response rating, B. signalgrass (surinam grass; Rate 250 g/ha, Postemergence, scale 0 to 10, 0 is no effect, 10 is complete control) | B. signalgrass plant response rating (surinam grass; Rate 500 g/ha, Postemergence, scale 0 to 10, 0 no effect, 10 complete control) | Rape plant response rating (rape; [1]) | Rape plant response rating (0 to 10 scale) (rape; [2]) | Rape plant response rating (rape; [3]) | Rape plant response rating (rape; [4]) | Rape plant response rating (rape; [5]) | Rape plant response rating (rape; [6]) | Plant response rating (0 to 10; 0 is no effect, 10 is complete control), Rape (rape; Rate 250 g/ha, Postemergence) | Rape plant response rating (rape; [7]) | Morningglory plant response rating (morningglory; [1]) | Morningglory plant response rating (0 to 10 scale) (morningglory; [2]) | Morningglory plant response rating (morningglory; [3]) | Morningglory plant response rating (morningglory; [4]) | Morningglory plant response rating (morningglory; [5]) | Morningglory plant response rating (morningglory; [6]) | Plant response rating (0 to 10; 0 is no effect, 10 is complete control), Morningglory (morningglory; Rate 250 g/ha, Postemergence) | Morningglory plant response rating (morningglory; [7]) | Wild oats plant response rating (wild oat; [1]) | Wild oats plant response rating (wild oat; [3]) | Wild oats plant response rating (wild oat; [4]) | Wild oats plant response rating (wild oat; [6]) | Plant response rating (0 to 10; 0 is no effect, 10 is complete control), Wild oats (wild oat; Rate 250 g/ha, Postemergence) | Wild oats plant response rating (wild oat; [7]) | S. Flatsedge plant response rating (smallflower flatsedge; [8]) | S. Flatsedge plant response rating (smallflower flatsedge; [9]) | S. Flatsedge plant response rating (smallflower flatsedge; [10]) | S. Flatsedge plant response rating (smallflower flatsedge; Rate 500 g/ha, Pre-emergence, flood test species, scale 0 to 10 (0 no effect, 10 complete control)) | Nutsedge plant response rating (purple nutsedge; [1]) | Nutsedge plant response rating (0 to 10 scale) (purple nutsedge; [2]) | Nutsedge plant response rating (purple nutsedge; [3]) | Nutsedge plant response rating (purple nutsedge; [4]) | Nutsedge plant response rating (purple nutsedge; [5]) | Nutsedge plant response rating (purple nutsedge; [6]) | Plant response rating (0 to 10; 0 is no effect, 10 is complete control), Nutsedge (purple nutsedge; Rate 250 g/ha, Postemergence) | Nutsedge plant response rating (purple nutsedge; [7]) | Rice plant response rating (rice; [8]) | Rice plant response rating (rice; [9]) | Rice plant response rating (rice; [10]) | Plant response rating, Rice (rice; [11]) | Bedstraw plant response rating (bedstraw; [1]) | Bedstraw plant response rating (0 to 10 scale) (bedstraw; [2]) | Bedstraw plant response rating (bedstraw; [3]) | Bedstraw plant response rating (bedstraw; [4]) | Bedstraw plant response rating (bedstraw; [5]) | Bedstraw plant response rating (bedstraw; [6]) | Plant response rating (0 to 10; 0 is no effect, 10 is complete control), Bedstraw (bedstraw; Rate 250 g/ha, Postemergence) | Bedstraw plant response rating (bedstraw; [7])
